Values quoted from earlier work as cited in PMC6862717 (ACS chemical neuroscience, 2018).

Tests used:
[1] = tested on: animal model of neuropathic pain
[2] = tested on: transgenic animal model of AD

## UKH-1114
[1]
  mechanical hypersensitivity: relieves mechanical hypersensitivity

## CN1CCN(c2ccc3c(c2)[C@H]2C[C@@H]3CCN2C(=O)OCc2ccccc2)CC1 (racemic) [SAS-0132]
nematodes
  neuroprotective properties in nematodes: shows neuroprotective properties
wild-type mice
  cognitive performance in wild-type mice: improves cognitive performance
[2]
  efficacy in a transgenic animal model of AD: efficacious
